Test results taken from article PMC10673369, “Preliminary SAR of Novel Pleuromutilin–Polyamine Conjugates” (Microorganisms, 2023).
Values after ≈ are worked out from the molar mass of the structure shown. Values joined by “and” are separate entries in the source; they are usually repeats but may differ in a detail not shown here. Equal entries are not always repeated.

Key:
[1] = system: S. aureus ATCC 25923; assay: MIC, broth dilution, S. aureus; format: cell-based; conditions: Staphylococcus aureus, ATCC25923, mean (n = 3)
Protocol: (§1) The susceptibility of bacterial strains S. aureus (ATCC 25923), E. coli (ATCC 25922), and P. aeruginosa (ATCC 27853 or PAO1) to antibiotics and compounds was determined using reported protocols. Additional antimicrobial evaluation against MRSA (ATCC 43300), Klebsiella pneumoniae (ATCC 700603), A. baumannii (ATCC 19606), Candida albicans (ATCC 90028), and Cryptococcus neoformans (ATCC 208821) was undertaken at the Community for Open Antimicrobial Drug Discovery at The University of Queensland (Australia) according to their standard protocols as reported previously. […]
(§2) 2.3. Antimicrobial Assays
(§3) The susceptibility of bacterial strains S. aureus (ATCC 25923), E. coli (ATCC 25922), and P. aeruginosa (ATCC 27853 or PAO1) to antibiotics and compounds was determined in microplates using the standard broth dilution method in accordance with the recommendations of the Comité de l’AntibioGramme de la Société Française de Microbiologie (CA-SFM). Briefly, the minimal inhibitory concentrations (MICs) were determined with an inoculum of 10^5 CFU in 200 µL of Mueller–Hinton broth (MHB) containing two-fold serial dilutions of each drug. The MIC was defined as the lowest […]
(§4) determine all MICs, the measurements were independently repeated in triplicate. Additional antimicrobial evaluation against MRSA (ATCC 43300), Klebsiella pneumoniae (ATCC 700603), A. baumannii (ATCC 19606), Candida albicans (ATCC 90028), and Cryptococcus neoformans (ATCC 208821) was undertaken at the Community for Open Antimicrobial Drug Discovery at The University of Queensland (Australia) according to their standard protocols as reported previously. […]
(§5) For C. neoformans, resazurin was added at 0.006% final concentration to each well and incubated for a further 3 h before MICs were determined by measuring […]
(§6) Colistin and vancomycin were used as positive bacterial inhibitor standards for Gram-negative and Gram-positive bacteria, respectively. Fluconazole was used as a positive fungal inhibitor standard for C. albicans and C. neoformans. The antibiotics were provided in […], with 3 above and 3 below its MIC value, and plated into the first 8 wells of column 23 of the 384-well NBS plates. The quality control (QC) of the assays was determined by the antimicrobial controls and the Z'-factor (using positive and negative controls). Each plate was deemed to fulfil the quality criteria (pass QC) if the Z'- […]
(§7) inhibition at their highest concentration, and no growth inhibition at their lowest concentration.
(§8) 2.4. Determination of the MICs of Antibiotics in the Presence of Synergizing Compounds

[2] = system: E. coli ATCC 25922; assay: MIC, broth dilution, E. coli; format: cell-based, Escherichia coli; conditions: Escherichia coli, ATCC25922, mean (n = 3)
Protocol: as §1, §2, §3, §4

[3] = system: P. aeruginosa PAO1; assay: MIC, broth dilution, P. aeruginosa PAO1; format: cell-based; conditions: Pseudomonas aeruginosa, mean (n = 3)
Protocol: as §1, §2, §3, §4, §5, §6, §7, §8

[4] = system: Staphylococcus aureus; parameters: method as in PMID 16589015, PMID 22070694, PMID 22191527; conditions: cited from earlier work
[5] = system: Mycobacterium smegmatis; parameters: method as in PMID 16589015, PMID 22070694, PMID 22191527; conditions: cited from earlier work
[6] = system: Escherichia coli; parameters: method as in PMID 16589015, PMID 22070694, PMID 22191527; conditions: cited from earlier work
[7] = system: P. aeruginosa ATCC 27853; assay: MIC of antibiotic alone, P. aeruginosa ATCC 27853; format: cell-based
Protocol: as §1, §2, §3, §5

[8] = system: C. albicans ATCC 90028; assay: MIC, CO-ADD antifungal assay, C. albicans; format: cell-based, Candida albicans; conditions: Candida albicans, ATCC90028, mean (n = 2)
Protocol: as §1, §2
(§9) The susceptibility of bacterial strains S. aureus (ATCC 25923), E. coli (ATCC 25922), and P. […]
(§10) baumannii (ATCC 19606), Candida albicans (ATCC 90028), and Cryptococcus neoformans (ATCC 208821) was undertaken at the Community for Open Antimicrobial Drug Discovery at The University of Queensland (Australia) according to their standard protocols as reported previously. […]
(§11) For the antifungal assay, fungi strains were cultured for 3 days on YPD agar at 30 °C. A yeast suspension of 1 × 106 to 5 × 10^6 CFU/mL was prepared from five colonies. These stock suspensions were diluted with yeast nitrogen base (YNB) (Becton Dickinson, 233520) broth to a final concentration of 2.5 × 10^3 CFU/mL. The compounds were serially diluted 2-fold across the wells of 96-well plates (Corning 3641, non-binding surface), with compound concentrations ranging from 0.015 to 64 µg/mL and final volumes of 50 µL, plated in duplicate. Then, 50 µL of the fungi suspension that was previously prepared in YNB broth to the final concentration of 2.5 × 10^3 CFU/mL was added to each well of the compound-containing plates, giving a final compound concentration range of 0.008 to 32 µg/mL. Plates were covered and incubated at 35 °C for 36 h without shaking. C. albicans MICs were determined by measuring the absorbance at OD530. For C. neoformans, resazurin was added at 0.006% final concentration to each well and incubated for a further 3 h before MICs were determined by measuring […]
as §6, §7, §8

[9] = system: C. neoformans ATCC 208821; assay: MIC, CO-ADD antifungal assay, C. neoformans; format: cell-based, Cryptococcus neoformans; conditions: Cryptococcus neoformans, ATCC208821, mean (n = 2)
Protocol: as §1, §2, §9, §10, §11, §6, §7, §8

[10] = Cytotoxicity assay, HEK293; format: cell-based; conditions: human; HEK293 cells; mean (n = 2); read-out: Cytotoxicity (IC50), concentration of compound at 50% cytotoxicity
Protocol: Cytotoxicity assays were conducted using reported protocols (see Supplementary File). […]
HEK293 cells were counted manually in a Neubauer hemocytometer and plated at a density of 5,000 cells/well into each well of the 384-well plates containing the 25x (2 µL) concentrated compounds [26,27]. The medium used was Dulbecco's modified Eagle’s medium (DMEM), supplemented with 10% fetal bovine serum (FBS). Cells were incubated together with the compounds for 20 h at 37 °C, 5% CO2.
(§12) To measure cytotoxicity, 5 µL (equals 100 µM final) of resazurin was added to each well after incubation and incubated for further 3 h at 37 °C with 5% CO2. After the final incubation, fluorescence intensity […]
reader. CC50 values (concentration at 50% cytotoxicity) were calculated by normalizing the fluorescence readout, with 74 µg/mL tamoxifen as negative control (0%) and normal cell growth as positive control (100%). The concentration-dependent percentage cytotoxicity was fitted to a dose–response function (using Pipeline Pilot) and CC50 values were determined. […]

[11] = system: MRSA ATCC 43300; assay: MIC, CO-ADD broth microdilution, MRSA; format: cell-based, methicillin-resistant S. aureus; conditions: Staphylococcus aureus, read-out: MIC MRSA
Protocol: as §1, §2, §9
baumannii (ATCC 19606), Candida albicans (ATCC 90028), and Cryptococcus neoformans (ATCC 208821) was undertaken at the Community for Open Antimicrobial Drug Discovery at The University of Queensland (Australia) according to their standard protocols as reported previously. For antimicrobial assays, the tested strains were cultured in either Luria broth (LB) (In Vitro Technologies, USB75852), nutrient broth (NB) (Becton Dickson, 234000), or MHB at 37 °C overnight. A sample of culture was then diluted 40-fold in fresh MHB and incubated at 37 °C for 1.5−2 h. The compounds were serially diluted 2-fold across the wells of 96-well plates (Corning 3641, non-binding surface), with compound concentrations ranging from 0.015 to 64 µg/ mL, and plated in duplicate. The resultant mid-log phase cultures were diluted to the final concentration of 1 × 10^6 CFU/mL; then, 50 µL was added to each well of the compound-containing plates, giving a final compound concentration range of 0.008 to 32 µg/mL and a cell density of 5 × 10^5 CFU/mL. All plates were then covered and incubated at 37 °C for 18 h. Resazurin was added at 0.001% final concentration to each well and incubated for 2 h before MICs […]
as §5, §6, §7, §8

[12] = parameters: method as in PMID 22070694, PMID 31480231; conditions: phase I clinical trials; cited from earlier work
[13] = system: P. aeruginosa PAO1; assay: Nitrocefin hydrolysis assay (outer membrane permeabilization); format: cell-based; conditions: polymyxin B at 98.3 μM ([…])
Protocol: Nitrocefin assays were conducted using reported protocols (see Supplementary File).
We also examined the ability of 9e to act as membrane disruptor of the Gram-negative bacteria P. aeruginosa PAO1 (Figure 5), using a nitrocefin colorimetric assay. This assay makes use of a chromogenic cephalosporin derivative, which in the presence of an outer membrane disruptor gains entry to the periplasm, where upon the action of β-lactamases leads to substrate hydrolysis with a detectable color change from yellow to red.
Briefly, restoring enhancer concentrations were determined with an inoculum of 5x10^5 CFU in 200 µL of MHB containing two-fold serial dilutions of each derivative in the presence of doxycycline at 4.5 […]
The lowest concentration of the polyamine
These measurements were independently repeated in triplicate.
Outer membrane permeabilization was measured using nitrocefin as a chromogenic substrate of periplasmic β-lactamase. […] Nitrocefin hydrolysis was monitored spectrophotometrically by measuring the increase in absorbance at 490 nm. […]
HEK293 cells were counted manually in a Neubauer hemocytometer and plated at a density of 5,000 cells/well into each well of the 384-well plates containing the 25x (2 µL) concentrated compounds [26,27]. […]
as §12
reader. […] The concentration-dependent percentage cytotoxicity was fitted to a dose–response function (using Pipeline Pilot) and CC50 values were determined.
Human whole blood was washed three times with three volumes of 0.9% NaCl and then resuspended in the same solution to a concentration of 0.5 x 10^8 cells/mL, as determined by the manual cell count in a Neubauer hemocytometer. […] Hemolysis was determined by measuring the supernatant absorbance at […] (OD405). The absorbance was measured using a Tecan M1000 Pro monochromator plate reader. […]

C=C[C@]1(C)C[C@@H](OC(=O)CO)[C@]2(C)[C@H](C)CC[C@]3(CCC(=O)[C@H]32)[C@@H](C)[C@@H]1O [Compound 1, pleuromutilin]
MIC [1]: 3.12 µM | MIC [2]: 400 µM (≈ 151 µg/mL) | MIC [3]: 800 µM | Antibacterial activity against Staphylococcus aureus [4]: bactericidal activity | Antibacterial activity against Mycobacterium smegmatis [5]: moderate activity | Antibacterial activity against Escherichia coli [6]: no effect

O=C(N[C@H](CO)[C@H](O)c1ccc([N+](=O)[O-])cc1)C(Cl)Cl [chloramphenicol, reference compound]
MIC [1]: 1.5 to 3 µM

C[C@H]1c2cccc(O)c2C(=O)C2=C(O)[C@]3(O)C(=O)C(C(N)=O)=C(O)[C@@H](N(C)C)[C@@H]3[C@@H](O)[C@@H]21 [doxycycline]
MIC of antibiotic alone [7]: 90 μM and 40 μg/mL

OC(Cn1cncn1)(Cn1cncn1)c1ccc(F)cc1F [fluconazole, reference compound]
MIC [8]: 0.4 µM | MIC [9]: 26 µM

[H]/N=C(/N)N[C@H]1[C@H](O)[C@@H](O)[C@H](O[C@@H]2O[C@@H](C)[C@](O)(C=O)[C@H]2O[C@@H]2O[C@@H](CO)[C@H](O)[C@@H](O)[C@@H]2NC)[C@@H](N/C(N)=N\[H])[C@@H]1O [streptomycin, reference compound]
MIC [1]: 21.5 µM | MIC [2]: 21.5 µM (≈ 12.5 µg/mL) | MIC [3]: 21.5 µM

CC/C(=C(\c1ccccc1)c1ccc(OCCN(C)C)cc1)c1ccccc1 [tamoxifen, reference compound]
IC50 at 20 h [10]: 24 µM

CN[C@H](CC(C)C)C(=O)N[C@H]1C(=O)N[C@@H](CC(N)=O)C(=O)N[C@H]2C(=O)N[C@H]3C(=O)N[C@H](C(=O)N[C@H](C(=O)O)c4cc(O)cc(O)c4-c4cc3ccc4O)[C@H](O)c3ccc(c(Cl)c3)Oc3cc2cc(c3O[C@@H]2O[C@H](CO)[C@@H](O)[C@H](O)[C@H]2O[C@H]2C[C@](C)(N)[C@H](O)[C@H](C)O2)Oc2ccc(cc2Cl)[C@H]1O [vancomycin, reference compound]
MIC [11]: 0.7 µM

azamulin [Compound 4]
Bioavailability [12]: poor bioavailability

polymyxin B
Outer membrane perturbation (nitrocefin hydrolysis) [13]: potent ability to perturb the outer membrane
